# Source: ChEMBL document CHEMBL1201862, “PubChem BioAssay data set” (2004)
# The source made the active and inactive calls.
# Experiments:
# [1] = target: T1, Neuropeptide Y receptor type 1 (Homo sapiens, UniProt P25929); type: functional;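 also: HEK293 cells with a CNG channel challenged with NPY then isoproterenol; potency as antagonist that reverses NPY suppression of cAMP signal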
# T1 sequence (P25929 whole entry): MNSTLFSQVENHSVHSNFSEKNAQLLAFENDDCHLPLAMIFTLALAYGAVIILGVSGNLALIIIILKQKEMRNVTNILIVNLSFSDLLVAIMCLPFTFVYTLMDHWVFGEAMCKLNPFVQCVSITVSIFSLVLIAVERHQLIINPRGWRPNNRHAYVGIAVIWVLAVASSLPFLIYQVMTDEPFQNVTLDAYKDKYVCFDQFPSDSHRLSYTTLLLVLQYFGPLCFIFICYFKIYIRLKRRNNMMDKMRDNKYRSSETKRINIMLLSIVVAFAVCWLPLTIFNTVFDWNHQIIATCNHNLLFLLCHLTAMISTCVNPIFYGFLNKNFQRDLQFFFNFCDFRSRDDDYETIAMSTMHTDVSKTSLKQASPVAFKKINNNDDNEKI
# [2] = target: T2, Neuropeptide Y receptor type 2 (Homo sapiens, UniProt P49146); type: functional, cell-based;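 also: HEK293 cells expressing the receptor and a CNG channel; stimulus was NPY near EC95 followed by isoproterenol to raise cAMP; antagonist potency measured as restoring cAMP signal that NPY suppresses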
# T2 sequence (P49146 whole entry): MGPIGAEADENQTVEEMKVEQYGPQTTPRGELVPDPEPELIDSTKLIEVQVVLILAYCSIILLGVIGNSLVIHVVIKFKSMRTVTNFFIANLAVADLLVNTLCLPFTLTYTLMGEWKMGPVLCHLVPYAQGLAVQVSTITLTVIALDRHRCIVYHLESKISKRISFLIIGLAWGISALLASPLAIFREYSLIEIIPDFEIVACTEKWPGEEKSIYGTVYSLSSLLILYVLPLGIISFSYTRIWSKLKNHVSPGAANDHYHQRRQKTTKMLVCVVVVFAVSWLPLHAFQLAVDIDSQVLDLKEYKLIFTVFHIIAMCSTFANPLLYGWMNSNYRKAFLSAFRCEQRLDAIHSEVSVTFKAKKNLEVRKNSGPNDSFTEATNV
# BJ [3] = assay: cells; type: functional, cell-based; settings: Homo sapiens
# BJ [4] = assay: cytotoxicity toward BJ-TERT-LT-ST fibroblasts, dose response, cell-based, RAS-independent, luminescence (AID 1935); type: functional; settings: Homo sapiens;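 also: BJ fibroblasts immortalized with TERT plus LT and ST oncogenes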
# [5] = target: Sphingosine 1-phosphate receptor 1 (Homo sapiens, UniProt P21453); type: functional;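 also: Tango beta-arrestin reporter U2OS cells stimulated with S1P near its EC80; inhibitor potency meaning antagonism of receptor activation by the natural agonist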
# BJ [6] = assay: cytotoxicity toward BJ-TERT fibroblasts, dose response, cell-based, RAS-independent, luminescence (AID 1933); type: functional; settings: Homo sapiens
# Melanocortin receptor 4 = Melanocortin receptor 4 (Homo sapiens, UniProt P32245); assay: MC4R antagonist potency on cAMP, dose response, cell-based, TR-FRET, biased antagonists (AID 602298); type: functional;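 also: antagonist potency against agonist-stimulated cAMP production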
# [7] = cytotoxicity toward DRD oncogenic fibroblasts, dose response, cell-based, non-viral oncogenic, luminescence (AID 1934); type: functional; settings: Homo sapiens
# [8] = target: T3, Sphingosine 1-phosphate receptor 4 (Homo sapiens, UniProt O95977); assay: Fluorescence dose response cell-based high throughput screening assay for antagonists of the Sphingosine 1-Phosphate Receptor 4 (S1P4). [Related pubchem assays: 1524 (Confirmation in triplicates.), 1510 (Primary screen.)]; type: functional
# T3 sequence (O95977 whole entry): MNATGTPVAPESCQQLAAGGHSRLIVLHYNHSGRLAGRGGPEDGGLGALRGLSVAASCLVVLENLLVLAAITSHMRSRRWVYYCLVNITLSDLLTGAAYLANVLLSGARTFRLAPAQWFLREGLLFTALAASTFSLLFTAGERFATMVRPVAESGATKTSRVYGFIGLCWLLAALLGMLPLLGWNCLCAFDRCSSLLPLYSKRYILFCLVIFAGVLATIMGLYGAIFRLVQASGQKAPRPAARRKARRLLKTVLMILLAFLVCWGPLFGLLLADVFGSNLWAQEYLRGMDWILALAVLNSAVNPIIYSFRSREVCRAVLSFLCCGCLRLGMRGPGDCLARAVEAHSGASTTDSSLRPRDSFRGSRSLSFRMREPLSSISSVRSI
# Protein RecA = target: T4, Protein RecA (Mycobacterium tuberculosis, UniProt P9WHJ3); assay: Fluorescence Cell-Free Homogeneous Dose Retest to Identify Inhibitors of RecA-Intein Splicing Activity. [Related pubchem assays (depositor defined):AID2097, AID2223, AID489010, AID492950]; type: functional
# T4 sequence (P9WHJ3 whole entry): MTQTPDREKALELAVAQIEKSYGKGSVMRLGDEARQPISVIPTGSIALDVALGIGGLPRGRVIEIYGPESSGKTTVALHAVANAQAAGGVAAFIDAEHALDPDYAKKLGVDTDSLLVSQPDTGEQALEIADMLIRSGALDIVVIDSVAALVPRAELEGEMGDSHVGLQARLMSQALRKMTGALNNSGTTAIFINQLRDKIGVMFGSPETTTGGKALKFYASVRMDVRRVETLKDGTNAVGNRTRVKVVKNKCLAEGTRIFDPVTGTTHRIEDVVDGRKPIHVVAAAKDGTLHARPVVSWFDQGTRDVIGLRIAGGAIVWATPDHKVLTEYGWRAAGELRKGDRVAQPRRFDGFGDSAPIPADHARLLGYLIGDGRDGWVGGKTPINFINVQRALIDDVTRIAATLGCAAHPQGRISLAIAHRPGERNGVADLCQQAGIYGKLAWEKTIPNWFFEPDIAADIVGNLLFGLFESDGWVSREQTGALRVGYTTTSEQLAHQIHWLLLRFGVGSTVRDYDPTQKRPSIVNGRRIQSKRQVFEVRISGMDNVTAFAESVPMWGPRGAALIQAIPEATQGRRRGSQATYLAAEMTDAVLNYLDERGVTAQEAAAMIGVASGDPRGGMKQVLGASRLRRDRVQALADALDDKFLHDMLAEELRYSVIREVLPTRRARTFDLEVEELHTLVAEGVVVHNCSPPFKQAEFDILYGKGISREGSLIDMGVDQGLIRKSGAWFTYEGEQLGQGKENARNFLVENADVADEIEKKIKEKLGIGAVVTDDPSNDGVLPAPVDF
# [9] = nonselective inhibitors of cellular cAMP signaling, dose response, counter-screen for MC4R biased antagonist project, cell-based, TR-FRET cAMP detection (AID 602305); type: functional;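 also: U2OS cells stimulated with forskolin near its EC80 as the cAMP inducer; potency is for inhibition of forskolin-stimulated cAMP signaling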
# [10] = target: T5, Replicative DNA helicase DnaB (Mycobacterium tuberculosis, UniProt P9WMR3); assay: DnaB intein splicing inhibitors, dose response, biochemical, cell-free fluorescence (AID 449749); type: functional
# T5 sequence (P9WMR3 whole entry): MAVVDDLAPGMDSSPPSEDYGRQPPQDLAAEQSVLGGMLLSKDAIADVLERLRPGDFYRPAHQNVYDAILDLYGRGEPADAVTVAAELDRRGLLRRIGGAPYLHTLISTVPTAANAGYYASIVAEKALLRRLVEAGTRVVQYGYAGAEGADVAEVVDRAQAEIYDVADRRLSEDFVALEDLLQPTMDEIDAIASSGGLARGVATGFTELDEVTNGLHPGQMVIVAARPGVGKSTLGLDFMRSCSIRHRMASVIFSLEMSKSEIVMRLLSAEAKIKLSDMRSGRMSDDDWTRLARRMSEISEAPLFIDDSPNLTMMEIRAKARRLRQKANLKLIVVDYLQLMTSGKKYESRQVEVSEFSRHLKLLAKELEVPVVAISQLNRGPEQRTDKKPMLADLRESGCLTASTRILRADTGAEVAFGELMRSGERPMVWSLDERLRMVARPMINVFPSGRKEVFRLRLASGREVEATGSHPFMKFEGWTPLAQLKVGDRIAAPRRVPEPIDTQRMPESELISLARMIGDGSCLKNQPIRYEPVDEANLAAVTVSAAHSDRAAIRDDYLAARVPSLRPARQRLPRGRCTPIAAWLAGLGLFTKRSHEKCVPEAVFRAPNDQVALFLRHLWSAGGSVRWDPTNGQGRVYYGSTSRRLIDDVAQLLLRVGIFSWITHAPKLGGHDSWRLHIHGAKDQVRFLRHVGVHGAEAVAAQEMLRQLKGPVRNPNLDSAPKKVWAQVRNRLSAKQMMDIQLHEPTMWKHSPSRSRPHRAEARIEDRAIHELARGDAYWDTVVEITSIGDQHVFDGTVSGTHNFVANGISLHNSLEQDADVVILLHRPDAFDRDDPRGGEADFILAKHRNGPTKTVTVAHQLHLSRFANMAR
# [11] = microbe, parasite or virus in culture; type: functional; settings: Mycobacterium tuberculosis
# [12] = target: T6, Alkaline phosphatase, tissue-nonspecific isozyme (Homo sapiens, UniProt P05186)
# T6 sequence (P05186 whole entry): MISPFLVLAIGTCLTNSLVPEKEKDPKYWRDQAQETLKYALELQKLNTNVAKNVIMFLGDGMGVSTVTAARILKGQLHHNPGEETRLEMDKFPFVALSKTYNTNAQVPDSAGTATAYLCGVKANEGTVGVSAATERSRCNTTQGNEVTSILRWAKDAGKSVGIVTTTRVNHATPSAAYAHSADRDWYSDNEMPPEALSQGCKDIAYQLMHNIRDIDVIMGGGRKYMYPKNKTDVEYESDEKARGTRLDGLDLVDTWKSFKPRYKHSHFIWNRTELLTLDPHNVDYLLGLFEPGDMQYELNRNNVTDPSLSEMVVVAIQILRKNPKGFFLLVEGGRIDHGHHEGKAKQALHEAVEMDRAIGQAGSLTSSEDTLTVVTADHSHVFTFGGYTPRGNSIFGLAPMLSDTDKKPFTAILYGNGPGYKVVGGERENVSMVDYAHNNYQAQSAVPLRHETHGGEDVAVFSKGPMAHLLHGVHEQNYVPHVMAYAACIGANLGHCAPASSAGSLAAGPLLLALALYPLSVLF
# [13] = target: Transitional endoplasmic reticulum ATPase (Homo sapiens, UniProt P55072, C522A); assay: C522A mutant p97 ATPase inhibitors, dose response, counter-screen for p97 inhibitor project, biochemical, luminescence (AID 1544)
# [14] = target: Transitional endoplasmic reticulum ATPase (Homo sapiens, UniProt P55072); assay: p97 ATPase inhibitors, dose response, biochemical (AID 1534)
# NS3 = NS3 (Hepatitis C virus, UniProt A3EZJ3); assay: PubChem AID 2173; parameters: species or system Hepacivirus hominis
# Bcl-2-like protein 10 = Bcl-2-like protein 10 (Homo sapiens, UniProt Q9HD36); assay: Biochemical TR3 FP assay of Bcl-B inhibitor potency, EC50 (AID 1243); type: functional
# Bcl-2-like protein 10, sequence (Q9HD36 whole entry): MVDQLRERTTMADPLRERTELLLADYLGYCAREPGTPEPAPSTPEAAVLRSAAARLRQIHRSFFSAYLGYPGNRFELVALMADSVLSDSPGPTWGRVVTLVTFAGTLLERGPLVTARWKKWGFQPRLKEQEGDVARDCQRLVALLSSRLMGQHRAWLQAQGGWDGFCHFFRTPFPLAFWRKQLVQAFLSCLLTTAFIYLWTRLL
# Sphingosine 1-phosphate receptor 1, sequence (P21453 whole entry): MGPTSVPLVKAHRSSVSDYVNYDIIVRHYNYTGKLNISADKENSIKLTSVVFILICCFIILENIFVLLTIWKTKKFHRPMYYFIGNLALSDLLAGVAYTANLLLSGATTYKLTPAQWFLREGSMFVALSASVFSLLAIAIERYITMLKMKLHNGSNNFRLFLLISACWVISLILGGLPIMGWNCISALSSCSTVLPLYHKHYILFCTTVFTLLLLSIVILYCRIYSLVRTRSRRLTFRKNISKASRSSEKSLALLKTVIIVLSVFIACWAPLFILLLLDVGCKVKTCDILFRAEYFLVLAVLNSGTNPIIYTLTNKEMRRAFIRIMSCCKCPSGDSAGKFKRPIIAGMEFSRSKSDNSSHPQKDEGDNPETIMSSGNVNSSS
# Transitional endoplasmic reticulum ATPase (Homo sapiens, UniProt P55072), sequence (P55072 whole entry): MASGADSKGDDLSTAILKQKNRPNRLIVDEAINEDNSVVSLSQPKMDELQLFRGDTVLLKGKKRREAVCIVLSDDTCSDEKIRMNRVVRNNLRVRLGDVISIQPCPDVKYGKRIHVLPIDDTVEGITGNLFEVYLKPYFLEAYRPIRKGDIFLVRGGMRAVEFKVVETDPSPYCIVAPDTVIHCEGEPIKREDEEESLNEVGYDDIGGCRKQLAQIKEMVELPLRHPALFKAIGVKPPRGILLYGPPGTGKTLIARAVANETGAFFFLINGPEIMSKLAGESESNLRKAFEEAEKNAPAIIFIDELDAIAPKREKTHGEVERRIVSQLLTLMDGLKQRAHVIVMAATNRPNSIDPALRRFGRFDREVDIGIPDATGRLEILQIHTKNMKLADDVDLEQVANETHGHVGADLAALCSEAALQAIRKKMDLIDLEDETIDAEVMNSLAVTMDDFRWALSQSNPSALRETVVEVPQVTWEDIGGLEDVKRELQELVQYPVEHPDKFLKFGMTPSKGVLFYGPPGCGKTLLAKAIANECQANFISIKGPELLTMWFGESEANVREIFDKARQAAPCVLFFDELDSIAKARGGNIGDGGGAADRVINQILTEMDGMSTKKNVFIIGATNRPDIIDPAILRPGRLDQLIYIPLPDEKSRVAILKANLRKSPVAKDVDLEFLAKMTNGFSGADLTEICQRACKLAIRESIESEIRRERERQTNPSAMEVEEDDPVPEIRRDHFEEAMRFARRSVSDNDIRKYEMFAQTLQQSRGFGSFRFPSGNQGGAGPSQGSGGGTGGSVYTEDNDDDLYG
# Melanocortin receptor 4, sequence (P32245 whole entry): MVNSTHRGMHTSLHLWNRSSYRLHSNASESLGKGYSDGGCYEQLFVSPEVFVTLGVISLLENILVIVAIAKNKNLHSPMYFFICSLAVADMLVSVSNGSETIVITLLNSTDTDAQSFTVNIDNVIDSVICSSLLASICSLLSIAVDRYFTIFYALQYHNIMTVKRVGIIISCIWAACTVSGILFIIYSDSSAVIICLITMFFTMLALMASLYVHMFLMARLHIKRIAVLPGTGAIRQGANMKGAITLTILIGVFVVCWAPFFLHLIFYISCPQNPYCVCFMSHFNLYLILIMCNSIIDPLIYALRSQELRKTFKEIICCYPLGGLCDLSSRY
# NS3, sequence (A3EZJ3 whole entry): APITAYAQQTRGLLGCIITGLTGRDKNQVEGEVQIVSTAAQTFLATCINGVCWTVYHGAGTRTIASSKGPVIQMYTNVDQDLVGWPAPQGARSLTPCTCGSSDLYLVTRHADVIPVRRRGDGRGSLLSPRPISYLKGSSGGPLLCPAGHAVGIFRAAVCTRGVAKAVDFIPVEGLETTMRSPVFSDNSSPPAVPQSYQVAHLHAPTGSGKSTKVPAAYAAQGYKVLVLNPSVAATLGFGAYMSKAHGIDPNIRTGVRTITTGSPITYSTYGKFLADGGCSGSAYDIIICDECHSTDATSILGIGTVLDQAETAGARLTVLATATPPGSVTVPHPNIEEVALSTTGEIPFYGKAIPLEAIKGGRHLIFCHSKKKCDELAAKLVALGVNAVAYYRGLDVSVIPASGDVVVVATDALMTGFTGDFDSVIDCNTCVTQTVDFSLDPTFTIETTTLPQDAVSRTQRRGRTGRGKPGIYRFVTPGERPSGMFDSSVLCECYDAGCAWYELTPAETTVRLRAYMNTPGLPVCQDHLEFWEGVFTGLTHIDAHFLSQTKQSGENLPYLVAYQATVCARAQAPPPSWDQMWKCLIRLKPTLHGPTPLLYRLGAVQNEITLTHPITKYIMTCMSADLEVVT
# Transitional endoplasmic reticulum ATPase (Homo sapiens, UniProt P55072, C522A), sequence (P55072 2-806 C522A limits assumed): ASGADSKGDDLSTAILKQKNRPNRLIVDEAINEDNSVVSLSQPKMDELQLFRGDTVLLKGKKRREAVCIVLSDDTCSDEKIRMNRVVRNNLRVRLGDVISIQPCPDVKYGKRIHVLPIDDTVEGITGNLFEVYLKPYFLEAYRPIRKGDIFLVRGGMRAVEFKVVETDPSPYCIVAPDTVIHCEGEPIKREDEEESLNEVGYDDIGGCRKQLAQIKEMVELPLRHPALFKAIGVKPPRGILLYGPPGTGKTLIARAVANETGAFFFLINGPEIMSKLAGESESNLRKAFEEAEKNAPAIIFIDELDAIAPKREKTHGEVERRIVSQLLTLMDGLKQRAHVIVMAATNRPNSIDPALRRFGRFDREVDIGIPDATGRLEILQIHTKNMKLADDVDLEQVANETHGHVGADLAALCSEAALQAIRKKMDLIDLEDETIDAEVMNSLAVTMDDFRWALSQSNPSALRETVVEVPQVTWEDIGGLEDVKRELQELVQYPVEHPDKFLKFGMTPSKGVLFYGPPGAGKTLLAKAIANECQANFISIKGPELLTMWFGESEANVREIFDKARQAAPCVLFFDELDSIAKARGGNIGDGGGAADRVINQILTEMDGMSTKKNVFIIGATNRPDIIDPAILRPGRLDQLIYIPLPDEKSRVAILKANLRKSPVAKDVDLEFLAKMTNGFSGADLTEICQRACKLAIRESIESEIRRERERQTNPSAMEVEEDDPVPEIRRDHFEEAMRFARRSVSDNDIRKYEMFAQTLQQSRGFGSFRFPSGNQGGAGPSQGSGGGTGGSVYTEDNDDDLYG
structure (smiles),measurement,setting,value
Cc1ccc(C)c(NS(=O)(=O)c2cc(C(=O)Nc3ccccc3-c3ccccc3)ccc2Cl)c1,IC50,[1],> 35 µM (not active)
same,IC50,[2],0.428 µM (active)
CC(=O)n1cc(N(C(=O)CCl)c2ccc(Cl)cc2)c2ccccc21,EC50,BJ [3],2.5 µM (inconclusive)
same,EC50,BJ [4],2.67 µM (active)
same,IC50,[5],7.32 µM (active)
same,EC50,BJ [6],0.198 µM (active)
same,IC50,Melanocortin receptor 4,> 64.5 µM (inactive)
same,EC50,[7],1.37 µM (inconclusive)
same,IC50,[8],0.682 µM (active)
same,EC50,Protein RecA,0.346 µM (active)
same,IC50,[9],> 64.5 µM (inactive)
same,AC50,[10],1.27 µM (active)
same,CC50,[11],1.08 µM (active)
CC(C)CN=C(S)NNC(=O)c1ccco1,EC50,[12],73.9 µM (not active)
O=C(CCl)Nc1nc(-c2ccco2)c(-c2ccco2)s1,IC50,[13],> 50 µM (not active)
same,IC50,[14],> 50 µM (not active)
same,IC50,NS3,47.8 µM (not active)
O=C(O)c1cccc2c1NC(c1cccc(Cl)c1Cl)C1CC=CC21 (stereo not drawn),EC50,Bcl-2-like protein 10,2.67 µM (active)
